We go through 13 compounds from patent US7064204B2, “Pharmaceutically active compounds having a tricyclic pyrazolotriazolopyrimidine ring structure and methods of use” (King Pharmacueticals Reserch and Development, Inc., priority 2002, dated 2006).

The structures appear in SMILES notation. Where only a bound is given, the exact number is not on record here.

In data set [1] the target is T1, human A2A adenosine receptors (Homo sapiens, UniProt P29274).
T1 construct: expressed in transfected cells; host or cells: CHO cells
As to the kind of experiment: Displacement of [3H]SCH58261 binding at human A2A adenosine receptors expressed in CHO cells. The conditions noted are these: for Ki: CHO cells; for affinity for A2A adenosine receptor subtype / selectivity for A2A versus the other adenosine receptor subtypes: in words; for affinity for A2A adenosine receptor subtype: discussion of Tables 2 and 3.

The target of data set [2] is T2, human A2B adenosine receptors (Homo sapiens, UniProt P29275).
T2 construct: expressed in transfected cells; host or cells: HEK-293 cells
T2 sequence (P29275 1-332): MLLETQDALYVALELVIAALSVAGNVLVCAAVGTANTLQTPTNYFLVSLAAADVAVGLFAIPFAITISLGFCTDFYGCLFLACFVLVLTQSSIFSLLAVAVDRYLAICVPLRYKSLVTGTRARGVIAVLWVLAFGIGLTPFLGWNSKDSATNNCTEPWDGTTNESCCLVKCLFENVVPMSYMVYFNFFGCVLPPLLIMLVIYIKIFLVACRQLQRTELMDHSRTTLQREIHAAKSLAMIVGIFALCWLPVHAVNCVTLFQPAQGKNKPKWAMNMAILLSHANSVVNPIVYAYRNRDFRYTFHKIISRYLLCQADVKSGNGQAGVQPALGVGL
Kind of data set: Displacement of [3H]DPCPX binding at human A2B adenosine receptors expressed in HEK-293 cells.

Data set [3] addresses T3, human A3 adenosine receptors (Homo sapiens, UniProt P0DMS8).
T3 sequence (P0DMS8 1-318): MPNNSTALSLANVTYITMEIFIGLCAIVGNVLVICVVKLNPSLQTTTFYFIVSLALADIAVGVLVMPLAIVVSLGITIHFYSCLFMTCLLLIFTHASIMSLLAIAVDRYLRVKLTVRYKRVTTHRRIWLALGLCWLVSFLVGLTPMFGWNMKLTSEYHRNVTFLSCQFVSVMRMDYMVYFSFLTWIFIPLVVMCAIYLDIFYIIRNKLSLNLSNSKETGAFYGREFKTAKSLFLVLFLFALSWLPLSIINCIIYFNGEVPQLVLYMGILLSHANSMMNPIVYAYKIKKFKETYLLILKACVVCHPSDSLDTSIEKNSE
Kind of data set: Displacement of [3H]MRE 3008F20 binding at human A3 adenosine receptors expressed in CHO cells. Details: expressed in transfected cells; host or cells: CHO cells. The settings on record: for affinity for / interaction with A3 adenosine receptor subtype: discussion of Tables 2 and 3. (In general: In a radioligand displacement assay an active substance lowers the binding of a labelled ligand.)

Data set [4] concerns the target T4, human A1 adenosine receptors (Homo sapiens, UniProt P30542).
T4 construct: expressed in transfected cells; host or cells: CHO cells
T4 sequence (P30542 1-326): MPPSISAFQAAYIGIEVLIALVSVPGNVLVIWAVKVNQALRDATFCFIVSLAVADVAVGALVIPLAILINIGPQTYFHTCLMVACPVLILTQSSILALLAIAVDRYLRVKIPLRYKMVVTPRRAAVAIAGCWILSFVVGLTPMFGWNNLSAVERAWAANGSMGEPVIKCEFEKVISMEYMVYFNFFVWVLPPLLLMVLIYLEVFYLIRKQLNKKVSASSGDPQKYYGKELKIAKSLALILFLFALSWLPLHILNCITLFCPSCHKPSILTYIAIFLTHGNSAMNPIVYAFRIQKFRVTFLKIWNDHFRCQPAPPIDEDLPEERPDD
Kind of data set: Displacement of [3H]DPCPX binding at human A1 adenosine receptors expressed in CHO cells.

A short description of data set [5]: Water solubility (stated in words). The format is physicochemical.
Data set [6] concerns the target T3, human A3 adenosine receptors. Kind of data set: Displacement of [125I]AB MECA binding at human A3 adenosine receptors expressed in HEK-293 cells. More on the design: expressed in transfected cells. The conditions noted are these: Table 2, footnote a: [125I]AB MECA, human A3, HEK-293 cells.
[7] abbreviates: Table 3: [3H]DPCPX, HEK-293 cells.
Setting [8] is: Table 3: [3H]MRE 3008F20, human A3, CHO cells.
Where [9] appears, read: Table 3: [3H]DPCPX, human A1, CHO cells.
The mark [10] stands for this setting: Table 3: [3H]SCH58261, human A2A.

T1 sequence (P29274 whole entry): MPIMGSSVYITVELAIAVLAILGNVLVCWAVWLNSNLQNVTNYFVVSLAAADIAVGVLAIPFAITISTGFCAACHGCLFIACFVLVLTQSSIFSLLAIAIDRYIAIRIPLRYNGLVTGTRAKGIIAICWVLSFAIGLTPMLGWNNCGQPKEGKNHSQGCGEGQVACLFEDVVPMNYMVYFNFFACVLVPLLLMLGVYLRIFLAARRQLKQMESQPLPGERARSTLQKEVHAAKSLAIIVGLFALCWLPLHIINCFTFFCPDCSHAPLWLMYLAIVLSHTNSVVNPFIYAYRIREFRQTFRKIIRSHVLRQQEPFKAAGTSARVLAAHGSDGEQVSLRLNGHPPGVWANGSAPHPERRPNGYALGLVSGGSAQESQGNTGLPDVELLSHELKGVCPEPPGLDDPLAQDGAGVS

As a reminder, the Ki is a dissociation constant, usually derived from enzyme kinetics or from competition with a known ligand. Take `Nc1nc2c(cnn2CCc2ccccc2)c2nc(-c3ccc(OCC(=O)Nc4ccc(I)cc4)cc3)nn12` [Compound 8, 2-[4-(5-Amino-7-phenethyl-7H-pyrazolo[4,3-e][1,2,4]triazolo[1,5-c]pyrimidin-2-yl)-phenoxy]-N-(4-iodo-phenyl)-acetamide]: the Ki was above 1000 nM in data set [1] (Table 2, footnote b: [3H]SCH58261, human A2A); above 1000 nM in data set [2] (Table 2, footnote b: [3H]DPCPX); above 1000 nM in data set [3] (Table 2, footnote b: [3H]MRE 3008F20, human A3, CHO cells); above 1000 nM in data set [4] (Table 2, footnote b: [3H]DPCPX, human A1).
`CCNc1c2c(nc(N)n3nc(-c4ccco4)nc23)nn1C` [Compound 38, N9-Ethyl-2-furan-2-yl-8-methyl-8H-pyrazolo[4,3-e][1,2,4]triazolo[1,5-c]pyrimidiine-5,9-diamine]: the “affinity for A2A adenosine receptor subtype” value in data set [1] was “good affinity”. For the same compound, the inhibition constant Ki in data set [2] (setting [7]) came out at 81 nM; in data set [3] (setting [8]), 225 nM; in data set [4] (setting [9]), 50 nM.
For the compound `CSc1c2c(nc(N)n3nc(-c4ccco4)nc23)nn1C` [Compound 41, 2-Furan-2-yl-8-methyl-9-methylsulfanyl-8H-pyrazolo[4,3-e][1,2,4]triazolo[1,5-c]pyrimidin-5-ylamine], the Ki in data set [1] (setting [10]) came to 1.2 nM; in data set [2] (setting [7]), 10.3 nM; in data set [3] (setting [8]), 35 nM; in data set [4] (setting [9]) it was 8.4 nM. The “selectivity for A2A versus the other adenosine receptor subtypes” value in data set [1] is reported as “low selectivity”. The “affinity for A2A adenosine receptor subtype” value in data set [1] was “good affinity”.
In the case of `CCCSc1c2c(nc(N)n3nc(-c4ccco4)nc23)nn1C` [Compound 42, 2-Furan-2-yl-8-methyl-9-propylsulfanyl-8H-pyrazolo[4,3-e][1,2,4]triazolo[1,5-c]pyrimidin-5-ylamine], the Ki is 2.1 nM in data set [1] (setting [10]), 69 nM in data set [2] (setting [7]), 224 nM in data set [3] (setting [8]) and 9 nM in data set [4] (setting [9]). In addition, the “selectivity for A2A versus the other adenosine receptor subtypes” value in data set [1] was “increases the selectivity”. The “affinity for A2A adenosine receptor subtype” value in data set [1] is “maintains the A2A affinity”.
In the case of `CCNc1c2c(nc(NC(=O)Nc3ccc(OC)cc3)n3nc(-c4ccco4)nc23)nn1C` [Compound 44, 1-(9-Ethylamino-2-furan-2-yl-8-methyl-8H-pyrazolo[4,3-e][1,2,4]triazolo[1,5-c]pyrimidin-5-yl)-3-(4-methoxy-phenyl)-urea], the “affinity for A2A adenosine receptor subtype” value in data set [1] is on record as “decrease of A2A affinity”. The figures for the inhibition constant (Ki) in data set [2] (setting [7]), in data set [3] (setting [8]) and in data set [4] (setting [9]) were 37 nM, 17 nM and 150 nM, respectively. The “affinity for / interaction with A3 adenosine receptor subtype” value (from here on “affinity for / interaction”) in data set [3] (in words) is given as “good increase in A3 affinity”.
Take `COc1ccc(NC(=O)Nc2nc3nn(C)c(SC)c3c3nc(-c4ccco4)nn23)cc1` [Compound 46, 1-(2-Furan-2-yl-8-methyl-9-methylsulfanyl-8H-pyrazolo[4,3-e][1,2,4]triazolo[1,5-c]pyrimidin-5-yl)-3-(4-methoxy-phenyl)-urea]: the Ki in data set [1] (setting [10]) was determined as 3.1 nM; in data set [2] (setting [7]), 24 nM; in data set [3] (setting [8]), 212 nM; in data set [4] (setting [9]), 70 nM. Moreover, the “affinity for / interaction” value in data set [3] (in words) is “decreased”.
Take `COc1ccc(CC(=O)Nc2nc3nn(C)c(SC)c3c3nc(-c4ccco4)nn23)cc1` [Compound 47, N-(2-Furan-2-yl-8-methyl-9-methylsulfanyl-8H-pyrazolo[4,3-e][1,2,4]triazolo[1,5-c]pyrimidin-5-yl)-2-(4-methoxy-phenyl)-acetamide]: the inhibition constant Ki in data set [1] (setting [10]) is 15 nM; in data set [2] (setting [7]) it was 45 nM; in data set [4] (setting [9]), 80 nM. Further, the “affinity for A2A adenosine receptor subtype” value in data set [1] is “maintains A2A affinity”. In addition, in data set [3] (in words), the “affinity for / interaction” value is listed as “decreased”.
As to `CSc1c2c(nc(NC(=O)Cc3ccc(CC(C)C)cc3)n3nc(-c4ccco4)nc23)nn1C` [Compound 48, N-(2-Furan-2-yl-8-methyl-9-methylsulfanyl-8H-pyrazolo[4,3-e][1,2,4]triazolo[1,5-c]pyrimidin-5-yl)-2-(4-isobutyl-phenyl)-acetamide], the results for the Ki in data set [1] (setting [10]), in data set [2] (setting [7]) and in data set [4] (setting [9]) were 50 nM, 190 nM and 780 nM, respectively. In addition, the “affinity for A2A adenosine receptor subtype” value in data set [1] is “maintains A2A affinity”. The “affinity for / interaction” value in data set [3] (in words) is reported as “decreased”.
Consider `CSc1c2c(nc(NC(=O)Cc3ccc4c(c3)OCO4)n3nc(-c4ccco4)nc23)nn1C` [Compound 49, 2-Benzo[1,3]dioxol-5-yl-N-(2-furan-2-yl-8-methyl-9-methylsulfanyl-8H-pyrazolo[4,3-e][1,2,4]triazolo[1,5-c]pyrimidin-5-yl)-acetamide], for which the Ki in data set [1] (setting [10]) turned out to be 4.1 nM; in data set [2] (setting [7]), 30 nM; in data set [3] (setting [8]), 110 nM; in data set [4] (setting [9]), 70 nM. Also, the “affinity for / interaction” value in data set [3] (in words) was “decreased”.
Take `CCNc1c2c(nc(NC(=O)Cc3ccc4c(c3)OCO4)n3nc(-c4ccco4)nc23)nn1C` [Compound 50, 2-Benzo[1,3]dioxol-5-yl-N-(9-ethylamino-2-furan-2-yl-8-methyl-8H-pyrazolo[4,3-e][1,2,4]triazolo[1,5-c]pyrimidin-5-yl)-acetamide]: the Ki in data set [1] (setting [10]) was found to be 61 nM; in data set [2] (setting [7]), 65 nM; in data set [3] (setting [8]) it was 183 nM; in data set [4] (setting [9]), 136 nM.
`CCNc1c2c(nc(NC(=O)Nc3ccc(OC)cc3)n3nc(-c4ccco4)nc23)nn1C.Cl` [Compound 55, 1-(9-Ethylamino-2-furan-2-yl-8-methyl-8H-pyrazolo[4,3-e][1,2,4]triazolo[1,5-c]pyrimidin-5-yl)-3-(4-methoxy-phenyl)-urea hydrochloride salt]: the Ki in data set [1] (setting [10]) was found to be 16 nM; in data set [2] (Table 3: [3H]DPCPX, HEK-293 cells, hydrochloride salt), 23 nM; in data set [3] (setting [8]), 9 nM; in data set [4] (Table 3: [3H]DPCPX, human A1, CHO cells, hydrochloride salt), 100 nM. Besides, the “selectivity for A3 versus the other adenosine receptor subtypes” value in data set [3] (in words) was “very low”. In addition, in data set [3] (in words), the “affinity for / interaction” value is reported as “increased”. For the same compound, in data set [5], the water solubility entry is “complete water solubility”.
`CSc1c2c(nc(N)n3nc(-c4ccc(CN5CCN(C)CC5)o4)nc23)nn1C` [Compound 56]: the water solubility entry in data set [5] was “significant water solubility”.
As for `Nc1nc2c(cnn2CCc2ccccc2)c2nc(-c3ccco3)nn12` [SCH 58261, 5-amino-7-(2-phenylethyl)-2-(2-furyl)pyrazolo[4,3-e]1,2,4-triazolo[1,5-c]pyrimidine], the Ki in data set [6] was above 1000 nM.
